pIC50: −log10 of the molar value.

For assay [1], the target named is T1, Androgen receptor (Rattus norvegicus, UniProt P15207).
T1 sequence (P15207 whole entry): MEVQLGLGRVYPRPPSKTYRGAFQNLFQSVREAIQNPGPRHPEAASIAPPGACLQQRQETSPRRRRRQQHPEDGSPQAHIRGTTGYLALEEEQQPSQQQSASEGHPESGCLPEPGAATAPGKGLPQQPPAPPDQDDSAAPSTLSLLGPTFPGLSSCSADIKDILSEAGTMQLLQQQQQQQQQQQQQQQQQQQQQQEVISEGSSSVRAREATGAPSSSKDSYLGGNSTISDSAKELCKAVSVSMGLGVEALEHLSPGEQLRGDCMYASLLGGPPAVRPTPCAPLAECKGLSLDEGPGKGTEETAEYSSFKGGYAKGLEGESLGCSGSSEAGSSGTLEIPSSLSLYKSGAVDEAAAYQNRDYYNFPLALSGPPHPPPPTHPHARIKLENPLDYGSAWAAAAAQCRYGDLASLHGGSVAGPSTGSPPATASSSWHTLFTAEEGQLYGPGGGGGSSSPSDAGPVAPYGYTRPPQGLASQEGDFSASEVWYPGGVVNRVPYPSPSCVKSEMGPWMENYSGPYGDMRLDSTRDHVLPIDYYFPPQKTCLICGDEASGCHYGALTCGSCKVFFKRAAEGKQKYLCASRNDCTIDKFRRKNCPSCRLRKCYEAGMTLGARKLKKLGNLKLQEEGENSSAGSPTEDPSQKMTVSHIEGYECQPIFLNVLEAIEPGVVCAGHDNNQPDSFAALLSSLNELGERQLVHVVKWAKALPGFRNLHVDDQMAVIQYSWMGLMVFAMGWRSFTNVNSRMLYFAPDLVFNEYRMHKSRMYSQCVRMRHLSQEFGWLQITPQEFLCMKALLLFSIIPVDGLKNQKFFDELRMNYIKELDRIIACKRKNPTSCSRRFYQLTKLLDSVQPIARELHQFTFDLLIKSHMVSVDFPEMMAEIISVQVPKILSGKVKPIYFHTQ
The assay is described as follows: Displacement of androgen fluormone from rat androgen receptor.

Assay [2] addresses T2, Androgen receptor (Homo sapiens, UniProt P10275).
T2 sequence (P10275 whole entry): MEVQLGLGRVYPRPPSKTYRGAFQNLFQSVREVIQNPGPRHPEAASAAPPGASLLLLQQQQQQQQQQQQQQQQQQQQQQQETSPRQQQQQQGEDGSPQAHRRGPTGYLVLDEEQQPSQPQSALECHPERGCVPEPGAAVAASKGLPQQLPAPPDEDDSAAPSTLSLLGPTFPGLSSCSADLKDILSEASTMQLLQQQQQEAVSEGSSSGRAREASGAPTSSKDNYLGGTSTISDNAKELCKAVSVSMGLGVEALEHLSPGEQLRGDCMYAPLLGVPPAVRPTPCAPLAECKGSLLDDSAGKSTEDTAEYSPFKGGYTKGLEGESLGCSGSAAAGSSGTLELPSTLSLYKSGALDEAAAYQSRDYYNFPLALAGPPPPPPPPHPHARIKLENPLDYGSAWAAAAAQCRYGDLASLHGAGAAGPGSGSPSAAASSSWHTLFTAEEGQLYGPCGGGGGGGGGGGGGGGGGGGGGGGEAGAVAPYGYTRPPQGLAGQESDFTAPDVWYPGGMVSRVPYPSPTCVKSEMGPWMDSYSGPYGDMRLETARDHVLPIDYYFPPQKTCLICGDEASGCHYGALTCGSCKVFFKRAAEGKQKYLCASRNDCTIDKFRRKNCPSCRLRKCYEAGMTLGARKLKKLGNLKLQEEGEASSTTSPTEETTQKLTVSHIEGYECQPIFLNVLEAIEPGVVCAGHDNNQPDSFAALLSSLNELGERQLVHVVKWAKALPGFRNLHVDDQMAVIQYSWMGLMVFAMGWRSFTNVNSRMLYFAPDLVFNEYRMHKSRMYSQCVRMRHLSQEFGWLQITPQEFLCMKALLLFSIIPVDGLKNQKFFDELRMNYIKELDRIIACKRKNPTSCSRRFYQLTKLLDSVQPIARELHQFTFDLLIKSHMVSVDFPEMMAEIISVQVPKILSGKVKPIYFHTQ
The assay is described as follows: Activity against human androgen receptor expressed in HepG2 cells assessed as luciferase reporter gene activation. A general note: A reporter such as luciferase makes a cellular process visible.

Regarding `BrCC(Br)C1CCC(Br)C(Br)C1` (configuration not stated), the pIC50 (commonly the negative decadic logarithm of the IC50, by convention in mol/L) was 6.79 on Androgen receptor [1] and 7.37 on Androgen receptor [2].

These data come from ChEMBL document CHEMBL1137300, “Identification of the brominated flame retardant 1,2-dibromo-4-(1,2-dibromoethyl)cyclohexane as an androgen agonist” (J Med Chem, 2006).
